Experimental data reported in paper PMC10396955, “2-Oxabicyclo[2.1.1]hexanes as saturated bioisosteres of the ortho-substituted phenyl ring” (Nature Chemistry, 2023).

Experiments:
Fusarium verticillioides = test: Antifungal activity, agar well diffusion method; type: cell-based; conditions: for zone of inhibition at 3.9 µg/mL / zone of inhibition at […] / zone of inhibition at 15.6 µg/mL / zone of inhibition at 31.25 µg/mL / zone of inhibition at 62.5 µg/mL / zone of inhibition at 250 µg/mL / zone of inhibition at 500 µg/mL / zone of inhibition at 1000 µg/mL / zone of inhibition at 125 µg/mL: Fusarium verticillioides, 0 = absence of antifungal activity, read-out: Diameter of inhibition zone; for zone of inhibition at 3.9 µg/mL: 0.0039 mg/mL; for zone of inhibition at […]: 0.0078 mg/mL; for zone of inhibition at 15.6 µg/mL: 0.0156 mg/mL; for zone of inhibition at 31.25 µg/mL: 0.03125 mg/mL; for zone of inhibition at 62.5 µg/mL: 0.0625 mg/mL; for zone of inhibition at 250 µg/mL: 0.25 mg/mL; for zone of inhibition at 500 µg/mL: 0.5 mg/mL; for zone of inhibition at 1000 µg/mL: 1 mg/mL, 40 µl per well, 25 °C, 72 h; for lowest inhibition concentration: agar well diffusion, tested 0.0039-1.0 mg/mL; for zone of inhibition at 125 µg/mL: 0.125 mg/mL
Description: (§1) The agar well diffusion method is widely used to evaluate the antimicrobial activity of different substances (S. Magaldi, S. Mata-Essayag, C. Hartung de Capriles, et al. Well diffusion for antifungal susceptibility testing, Int. J. Infect. Dis. 8, 2004 , 39–45; C. Valgas, S. M. De Souza, E. F. A. Smânia, et al. Screening methods to determine antibacterial activity of natural products. Braz. J. Microbiol. 38 , 2007 , 369–380). Similarly to the procedure used in a disk-diffusion method, the agar plate surface is inoculated by spreading a volume of the microbial inoculum over the entire agar surface. Then, a hole with a diameter of 6 to 8 mm is punched aseptically with a sterile cork borer or a tip, and a volume […] of the antimicrobial agent or extract solution at desired concentration is introduced into the well. Then, agar plates are incubated under suitable conditions depending upon the test microorganism. The antimicrobial agent diffuses in the agar medium and inhibits the growth of the microbial strain tested (M. Balouiri, M. Sadiki, S. K. Ibnsouda. Methods for in vitro evaluating […]
(§2) Agar well diffusion method is a qualitative method used to measure the ability of compounds to inhibit microbial growth. This test is a quick and easy way to measure and compare levels of inhibitory […]
(§3) Antifungal activity of the synthetic compounds using agar well diffusion The compunds were tested towards plant pathogens Fusarium oxysporum Schltdl. and F. verticillioides (Sacc.) Nirenberg isolated from crops. Antifungal activity of the synthetic compounds was evaluated with using of an agar well diffusion method based on a disk diffusion assay for testing filamentous fungi (CLSI M51-A) [CLSI. Method for Antifungal Disk Diffusion Susceptibility Testing of Nondermatophyte Filamentous Fungi; Approved Guideline.CLSI document M51-A. Wayne, PA:
(§4) Clinical and Laboratory Standards Institute; 2010. This method is standardized for Altenaria , Aspergillus, Bipolaris , Fusarium , order Mucorales etc.
(§5) Preparation of synthetic compounds for mycological assay
(§6) Solutions of fungicides and its analogs were diluted in dimethyl sulfoxide (DMSO) to produce the […]
(§7) Antifungal well diffusion method
(§8) The fungal strains were cultured on potato dextrose agar slants (PDA, Eur. Pharm.) and incubated at 25 °C for 5 days. Sterile distilled water was used to cover and resuspend the colonies. Suspension of […]
(§9) conidia was adjusted to inoculums 5×10^6 conidia/mL. The suspension was further diluted in warm PDA 1:10 to obtain final working inoculums 5×10^5 conidia/mL.
(§10) Polypropylene cylinders (d, 5 mm) were placed on the surface and wells punched in the medium were used as reservoir of the test substances in different concentrations. 40 µl of solutions containing 0.0039-1.0 mg/mL of a test compound was added into the wells.
(§11) Each compound was tested in triplicate at different concentrations. Growth control was a well with 40 µl of DMSO, which was used for test components dilution.
(§12) Plates incubated at 25 °C for 72 h. The test compounds at known concentration into contact with an inoculated medium then exerts a growth-inhibiting effect then a clear zone (the zone of inhibition) appears around the test product. Diameter of a clear zone around the well is measured at the end of the incubation period in millimeters. If the fungal strain is susceptible to the antifungal agent, then a zone of inhibition appears on the agar plate. If it is resistant to the test compound, then no zone is evident.
(§13) The size of the zone of inhibition is usually related to the level of antifungal activity present in the […]
(§14) The growth rate of Fusarium oxysporum and F. verticillioides for each well was determined visually and compared with the growth of control.
(§15) As shown in the table the antifungal activity of the 6 compounds, - Fluxapyroxad, compound 28, compound 29, Boscalid, compound 30, compound 31, - were tested against plant pathogenic fungal […]
(§16) toward Fusarium oxysporum (Table S5, Figure S16). Inhibition zones of all compounds characterized […]

Fusarium oxysporum = test: Antifungal activity, agar well diffusion method; type: cell-based; conditions: for zone of inhibition at 3.9 µg/mL / zone of inhibition at […] / zone of inhibition at 15.6 µg/mL / zone of inhibition at 31.25 µg/mL / zone of inhibition at 62.5 µg/mL / zone of inhibition at 125 µg/mL / zone of inhibition at 250 µg/mL / zone of inhibition at 500 µg/mL / zone of inhibition at 1000 µg/mL: Fusarium oxysporum, zones st (static growth), read-out: Diameter of inhibition zone; for zone of inhibition at 3.9 µg/mL: 0.0039 mg/mL; for zone of inhibition at […]: 0.0078 mg/mL; for zone of inhibition at 15.6 µg/mL: 0.0156 mg/mL; for zone of inhibition at 31.25 µg/mL: 0.03125 mg/mL; for zone of inhibition at 62.5 µg/mL: 0.0625 mg/mL; for zone of inhibition at 125 µg/mL: 0.125 mg/mL; for zone of inhibition at 250 µg/mL: 0.25 mg/mL; for zone of inhibition at 500 µg/mL: 0.5 mg/mL; for zone of inhibition at 1000 µg/mL: 1 mg/mL, 40 µl per well, 25 °C, 72 h; for lowest inhibition concentration: agar well diffusion, tested 0.0039-1.0 mg/mL
Description: as §1, §2, §3, §4, §5, §6, §7, §8, §9, §10, §11, §12, §13, §14, §15, §16

Row | Structure (SMILES) | zone of inhibition at 3.9 µg/mL (Fusarium verticillioides) [mm] | zone of inhibition at […] (Fusarium verticillioides) [mm] | zone of inhibition at 15.6 µg/mL (Fusarium verticillioides) [mm] | zone of inhibition at 31.25 µg/mL (Fusarium verticillioides) [mm] | zone of inhibition at 62.5 µg/mL (Fusarium verticillioides) [mm] | zone of inhibition at 250 µg/mL (Fusarium verticillioides) [mm] | zone of inhibition at 500 µg/mL (Fusarium verticillioides) [mm] | zone of inhibition at 1000 µg/mL (Fusarium verticillioides) [mm] | lowest inhibition concentration (Fusarium verticillioides) [mg/mL] | zone of inhibition at 3.9 µg/mL (Fusarium oxysporum) [mm] | zone of inhibition at […] (Fusarium oxysporum) [mm] | zone of inhibition at 15.6 µg/mL (Fusarium oxysporum) [mm] | zone of inhibition at 31.25 µg/mL (Fusarium oxysporum) [mm] | zone of inhibition at 62.5 µg/mL (Fusarium oxysporum) [mm] | zone of inhibition at 125 µg/mL (Fusarium oxysporum) [mm] | zone of inhibition at 250 µg/mL (Fusarium oxysporum) [mm] | zone of inhibition at 500 µg/mL (Fusarium oxysporum) [mm] | zone of inhibition at 1000 µg/mL (Fusarium oxysporum) [mm] | lowest inhibition concentration (Fusarium oxysporum) [mg/mL] | zone of inhibition at 125 µg/mL (Fusarium verticillioides) [mm] | also measured
1 | O=C(Nc1ccccc1-c1ccc(Cl)cc1)c1cccnc1Cl [Boscalid, reference compound] | 0 | 11 ± 1 | 24 ± 1.5 | 28 ± 1 | 30 ± 0.6 | 39 ± 0.6 | 40 ± 0.6 | 44 ± 1.2 | 0.0078 | 9 ± 0.6 | 9 ± 1.7 | 11 ± 1.5 | 12 ± 1.7 | 24 ± 1 | 25 | 30 | 31 ± 1.2 | 39 ± 0.6 | 0.0039 | – | –
2 | O=C(N[C@@H]1[C@H]2C[C@]1(c1ccc(Cl)cc1)CO2)c1cccnc1Cl (relative stereo) [Compound 31] | 0 | 0 | 0 | 0 | 0 | 16 ± 1.2 | 23 ± 1.5 | 29 ± 1.2 | – | 8 ± 0.6 | 9 ± 0.6 | 14 ± 1 | 16 ± 1 | 18 ± 0.6 | 19 ± 1 | 18 ± 1 | 21 ± 1 | 25 ± 0.6 | 0.0039 | 10 ± 0.6 | melting point: 147 to 148 °C
3 | Cn1cc(C(=O)Nc2ccccc2-c2cc(F)c(F)c(F)c2)c(C(F)F)n1 [Fluxapyroxad, reference compound] | 19 ± 0.6 | 26 ± 1.2 | 30 ± 1.5 | 33 ± 0.6 | 34 ± 1.2 | 40 ± 1 | 49 ± 1.2 | 56 ± 1.7 | – | 14 ± 1.2 | 17 ± 1.2 | 22 ± 1.7 | 28 ± 1.5 | 30 ± 0.6 | 33 ± 1 | 35 ± 0.6 | 38 ± 1.5 | 43 ± 1.53 | < 0.0039 | 36 ± 0.6 | –
4 | Cn1cc(C(=O)N[C@@H]2[C@H]3C[C@]2(c2cc(F)c(F)c(F)c2)CO3)c(C(F)F)n1 (relative stereo) [Compound 29] | 0 | 10 | 15 ± 0.6 | 26 ± 1.2 | 31 ± 1.2 | 39 ± 1.2 | 41 ± 1.7 | 45 ± 0.6 | 0.0078 | 9 ± 1.2 | 13 ± 1.5 | 14 ± 1.2 | 18 ± 1.5 | 18 ± 0.6 | 23 ± 0.6 | 32 ± 1.7 | 36 ± 1 | 38 ± 1.53 | 0.0039 | 35 ± 1 | –
5 | Cn1cc(C(=O)N[C@@H]2[C@@H]3CC[C@@]2(c2cc(F)c(F)c(F)c2)C3)c(C(F)F)n1 (relative stereo) [Compound 28] | 35 ± 1.5 | 37 ± 1.5 | 41 ± 1.2 | 41 ± 1.7 | 47 ± 1 | 51 ± 1.5 | 51 ± 1.7 | 58 ± 1.5 | – | 20 | 25 | 26 ± 1 | 28 ± 1 | 30 ± 0.6 | 34 ± 1.2 | 38 ± 1.5 | 38 ± 0.6 | 44 ± 1.15 | < 0.0039 | 48 ± 1.5 | –
6 | O=C(N[C@@H]1[C@@H]2CC[C@@]1(c1ccc(Cl)cc1)C2)c1cccnc1Cl (relative stereo) [Compound 30] | 11 ± 1.2 | 19 ± 1.2 | 25 ± 0.6 | 30 ± 0.6 | 31 ± 1 | 41 ± 1.2 | 46 ± 1.7 | 49 ± 1.2 | < 0.0039 | 16 ± 1.2 | 19 ± 1.2 | 20 ± 1.5 | 25 ± 0.6 | 25 | 30 | 30 | 30 | 30 | < 0.0039 | 36 ± 1.7 | –
